Test results: patent US20260130395A1, “Water Dispersible Botanical Compositions” (Aquila Black Limited, priority 2021, published 2026)

Experiment: Stability of cannabinoid compounds and Vitamin E components in Beverage 1 (AB White) by LCMSMS
Assay type: physicochemical
Conditions: for Stability of Plant-Derived Cannabinoid Compounds in AB White, 8° C.: AB White stored at 8° C.; for Stability of Plant-Derived Cannabinoid Compounds in AB White, 21-25° C.: AB White stored at 21-25° C.

CCCCCc1cc(O)c2c(c1)OC1(C)CCC3C1C2C3(C)C (stereo not drawn) [CBL, cannabicyclol]
Stability of Plant-Derived Cannabinoid Compounds in AB White, 8° C. (0 days): 0.550 µg/mL
Stability of Plant-Derived Cannabinoid Compounds in AB White, 8° C. (1 days): 0.541 µg/mL
Stability of Plant-Derived Cannabinoid Compounds in AB White, 8° C. (2 days): 0.542 µg/mL
Stability of Plant-Derived Cannabinoid Compounds in AB White, 8° C. (3 days): 0.553 µg/mL
Stability of Plant-Derived Cannabinoid Compounds in AB White, 8° C. (5 days): 0.552 µg/mL
Stability of Plant-Derived Cannabinoid Compounds in AB White, 8° C. (8 days): 0.537 µg/mL
Stability of Plant-Derived Cannabinoid Compounds in AB White, 8° C. (9 days): 0.535 µg/mL
Stability of Plant-Derived Cannabinoid Compounds in AB White, 8° C. (10 days): 0.544 µg/mL
Stability of Plant-Derived Cannabinoid Compounds in AB White, 8° C. (11 days): 0.544 µg/mL
Stability of Plant-Derived Cannabinoid Compounds in AB White, 8° C. (12 days): 0.553 µg/mL
Stability of Plant-Derived Cannabinoid Compounds in AB White, 8° C. (15 days): 0.534 µg/mL
Stability of Plant-Derived Cannabinoid Compounds in AB White, 8° C. (16 days): 0.546 µg/mL
Stability of Plant-Derived Cannabinoid Compounds in AB White, 8° C. (17 days): 0.540 µg/mL
Stability of Plant-Derived Cannabinoid Compounds in AB White, 8° C. (18 days): 0.536 µg/mL
Stability of Plant-Derived Cannabinoid Compounds in AB White, 8° C. (19 days): 0.537 µg/mL
Stability of Plant-Derived Cannabinoid Compounds in AB White, 8° C. (22 days): 0.555 µg/mL
Stability of Plant-Derived Cannabinoid Compounds in AB White, 8° C. (23 days): 0.545 µg/mL
Stability of Plant-Derived Cannabinoid Compounds in AB White, 8° C. (24 days): 0.548 µg/mL
Stability of Plant-Derived Cannabinoid Compounds in AB White, 8° C. (25 days): 0.540 µg/mL
Stability of Plant-Derived Cannabinoid Compounds in AB White, 8° C. (26 days): 0.534 µg/mL
Stability of Plant-Derived Cannabinoid Compounds in AB White, 8° C. (29 days): 0.547 µg/mL
Stability of Plant-Derived Cannabinoid Compounds in AB White, 8° C. (30 days): 0.544 µg/mL
Stability of Plant-Derived Cannabinoid Compounds in AB White, 8° C. (60 days): 0.543 µg/mL
Stability of Plant-Derived Cannabinoid Compounds in AB White, 8° C. (90 days): 0.527 µg/mL
Stability of Plant-Derived Cannabinoid Compounds in AB White, 8° C. (120 days): 0.534 µg/mL
Stability of Plant-Derived Cannabinoid Compounds in AB White, 8° C. (150 days): 0.540 µg/mL
Stability of Plant-Derived Cannabinoid Compounds in AB White, 8° C. (180 days): 0.542 µg/mL
Stability of Plant-Derived Cannabinoid Compounds in AB White, 8° C. (210 days): 0.534 µg/mL
Stability of Plant-Derived Cannabinoid Compounds in AB White, 8° C. (240 days): 0.535 µg/mL
Stability of Plant-Derived Cannabinoid Compounds in AB White, 8° C. (270 days): 0.539 µg/mL
Stability of Plant-Derived Cannabinoid Compounds in AB White, 8° C. (300 days): 0.526 µg/mL
Stability of Plant-Derived Cannabinoid Compounds in AB White, 8° C. (330 days): 0.543 µg/mL
Stability of Plant-Derived Cannabinoid Compounds in AB White, 8° C. (360 days): 0.533 µg/mL
Stability of Plant-Derived Cannabinoid Compounds in AB White, 8° C. (390 days): 0.535 µg/mL
Stability of Plant-Derived Cannabinoid Compounds in AB White, 8° C. (420 days): 0.526 µg/mL
Stability of Plant-Derived Cannabinoid Compounds in AB White, 8° C. (450 days): 0.532 µg/mL
Stability of Plant-Derived Cannabinoid Compounds in AB White, 8° C. (480 days): 0.521 µg/mL
Stability of Plant-Derived Cannabinoid Compounds in AB White, 8° C. (510 days): 0.514 µg/mL
Stability of Plant-Derived Cannabinoid Compounds in AB White, 8° C. (540 days): 0.514 µg/mL
Stability of Plant-Derived Cannabinoid Compounds in AB White, 8° C. (570 days): 0.503 µg/mL
Stability of Plant-Derived Cannabinoid Compounds in AB White, 21-25° C. (0 days): 0.550 µg/mL
Stability of Plant-Derived Cannabinoid Compounds in AB White, 21-25° C. (1 days): 0.539 µg/mL
Stability of Plant-Derived Cannabinoid Compounds in AB White, 21-25° C. (2 days): 0.540 µg/mL
Stability of Plant-Derived Cannabinoid Compounds in AB White, 21-25° C. (3 days): 0.543 µg/mL
Stability of Plant-Derived Cannabinoid Compounds in AB White, 21-25° C. (5 days): 0.530 µg/mL
Stability of Plant-Derived Cannabinoid Compounds in AB White, 21-25° C. (8 days): 0.542 µg/mL
Stability of Plant-Derived Cannabinoid Compounds in AB White, 21-25° C. (9 days): 0.535 µg/mL
Stability of Plant-Derived Cannabinoid Compounds in AB White, 21-25° C. (10 days): 0.546 µg/mL
Stability of Plant-Derived Cannabinoid Compounds in AB White, 21-25° C. (11 days): 0.552 µg/mL
Stability of Plant-Derived Cannabinoid Compounds in AB White, 21-25° C. (12 days): 0.529 µg/mL
Stability of Plant-Derived Cannabinoid Compounds in AB White, 21-25° C. (15 days): 0.548 µg/mL
Stability of Plant-Derived Cannabinoid Compounds in AB White, 21-25° C. (16 days): 0.537 µg/mL
Stability of Plant-Derived Cannabinoid Compounds in AB White, 21-25° C. (17 days): 0.554 µg/mL
Stability of Plant-Derived Cannabinoid Compounds in AB White, 21-25° C. (18 days): 0.554 µg/mL
Stability of Plant-Derived Cannabinoid Compounds in AB White, 21-25° C. (19 days): 0.552 µg/mL
Stability of Plant-Derived Cannabinoid Compounds in AB White, 21-25° C. (22 days): 0.547 µg/mL
Stability of Plant-Derived Cannabinoid Compounds in AB White, 21-25° C. (23 days): 0.530 µg/mL
Stability of Plant-Derived Cannabinoid Compounds in AB White, 21-25° C. (24 days): 0.546 µg/mL
Stability of Plant-Derived Cannabinoid Compounds in AB White, 21-25° C. (25 days): 0.532 µg/mL
Stability of Plant-Derived Cannabinoid Compounds in AB White, 21-25° C. (26 days): 0.549 µg/mL
